Test system: Japanese medaka (Oryzias latipes)
Test: Fish short-term reproduction assay (FSTRA, OECD TG229), 21-day flow-through exposure
Details: for LOEC on VTG induction in male (in molarity) / LOEC for VTG induction in males: hepatic VTG; for LOEC (in molarity) for male VTG: times higher than that of E2 / LOEC on male VTG induction: times smaller than the LOEC for CMP: in vivo; for Fertility rate (%) / Mortality (%) Female / Mortality (%) Male / Number of fertilized eggs / Number of total eggs / SSC Female / SSC Male / VTG (ng/mg of liver) Female / VTG (ng/mg of liver) Male: 21 days; for GSI Female / GSI Male / HSI Female / HSI Male / Length Female / Length Male / Weight Female / Weight Male: at completion of exposure; for effect on fecundity (number of total eggs), in words: within the test concentrations
Summary of the method: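 Run to OECD TG229: mature NIES-R medaka pairs (3♂/3♀ per vessel, 4 vessels per treatment plus dilution water control) were dosed by continuous flow-through for 21 days. Test concentrations were spaced 2- to 5-fold. Daily spawned eggs were counted under the microscope for fertilized versus unfertilized.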

[1] = 21-day exposure, measured conc.
[2] = highest concentration, 21-day exposure

## CCC(C)(C)c1ccc(O)cc1 [PTH, 4‐tert‐Pentylphenol]
21-day exposure
  LOEC on VTG induction in male (in molarity): 590 nM
  effect on fecundity (number of total eggs), in words: significant decrease
[1]
  LOEC for VTG induction in males: 96.5 µg/L
[2]
  effect on male GSI, in words: significant decreasing
  LOEC (in molarity) for male VTG: times higher than that of E2: 14,000 times
  LOEC on male VTG induction: times smaller than the LOEC for CMP: > 8 times
Measured conc. 96.5 μg/L
  Fertility rate (%): 92%
  Mortality (%) Female: 8.3%
  Mortality (%) Male: 0%
  Number of fertilized eggs: 18
  Number of total eggs: 19 ± 6.6 /female/day
  SSC Female: 0 ± 0
  SSC Male: 98 ± 8.0
  VTG (ng/mg of liver) Female: 1,680 ± 240 ng/mg of liver
  VTG (ng/mg of liver) Male: 83.2 ± 106 ng/mg of liver
  GSI Female: 9.5%
  GSI Male: 0.74%
  HSI Female: 4.3%
  HSI Male: 2.5%
  Length Female: 34.8 mm
  Length Male: 35.8 mm
  Weight Female: 470 mg
  Weight Male: 532 mg
Measured conc. 342 μg/L
  Fertility rate (%): 93%
  Mortality (%) Female: 8.3%
  Mortality (%) Male: 0%
  Number of fertilized eggs: 17
  Number of total eggs: 18 ± 3.6 /female/day
  SSC Female: 0 ± 0
  SSC Male: 94 ± 14
  VTG (ng/mg of liver) Female: 2,820 ± 1,540 ng/mg of liver
  VTG (ng/mg of liver) Male: 621 ± 265 ng/mg of liver
  GSI Female: 8.1%
  GSI Male: 0.67%
  HSI Female: 4.5%
  HSI Male: 3.1%
  Length Female: 34.5 mm
  Length Male: 34.7 mm
  Weight Female: 476 mg
  Weight Male: 516 mg
Measured conc. 1,100 μg/L
  Fertility rate (%): 74%
  Mortality (%) Female: 17%
  Mortality (%) Male: 8.3%
  Number of fertilized eggs: 10
  Number of total eggs: 13 ± 3.6 /female/day
  SSC Female: 0 ± 0
  SSC Male: 95 ± 5.0
  VTG (ng/mg of liver) Female: 5,770 ± 2,880 ng/mg of liver
  VTG (ng/mg of liver) Male: 9,740 ± 800 ng/mg of liver
  GSI Female: 8.4%
  GSI Male: 0.51%
  HSI Female: 4.7%
  HSI Male: 4.1%
  Length Female: 33.3 mm
  Length Male: 34.5 mm
  Weight Female: 438 mg
  Weight Male: 498 mg

## C#C[C@]1(O)CC[C@H]2[C@@H]3CCc4cc(O)ccc4[C@H]3CC[C@@]21C [EE2, 17α‐Ethynylestradiol]
21-day exposure
  LOEC on VTG induction in male (in molarity): 0.06 nM
  effect on fecundity (number of total eggs), in words: significant decrease
[1]
  LOEC for VTG induction in males: 0.0178 µg/L
[2]
  effect on male GSI, in words: significant decreasing
  LOEC on male VTG induction: times smaller than the LOEC for CMP: more than 8,000 times
Measured conc. 17.8 ng/L
  Fertility rate (%): 84%
  Mortality (%) Female: 0%
  Mortality (%) Male: 0%
  Number of fertilized eggs: 15
  Number of total eggs: 18 ± 2.3 /female/day
  SSC Female: 0 ± 0
  SSC Male: 90 ± 8.1
  VTG (ng/mg of liver) Female: 2,170 ± 223 ng/mg of liver
  VTG (ng/mg of liver) Male: 68.3 ± 80.4 ng/mg of liver
  GSI Female: 10.0%
  GSI Male: 0.75%
  HSI Female: 4.2%
  HSI Male: 2.3%
  Length Female: 35.4 mm
  Length Male: 35.9 mm
  Weight Female: 516 mg
  Weight Male: 531 mg
Measured conc. 84.9 ng/L
  Fertility rate (%): 88%
  Mortality (%) Female: 0%
  Mortality (%) Male: 0%
  Number of fertilized eggs: 15
  Number of total eggs: 17 ± 4.9 /female/day
  SSC Female: 0 ± 0
  SSC Male: 88 ± 5.7
  VTG (ng/mg of liver) Female: 3,840 ± 1,370 ng/mg of liver
  VTG (ng/mg of liver) Male: 10,900 ± 3,840 ng/mg of liver
  GSI Female: 9.5%
  GSI Male: 0.60%
  HSI Female: 3.7%
  HSI Male: 2.7%
  Length Female: 35.8 mm
  Length Male: 36.3 mm
  Weight Female: 498 mg
  Weight Male: 548 mg
Measured conc. 424 ng/L
  Fertility rate (%): 73%
  Mortality (%) Female: 8%
  Mortality (%) Male: 33%
  Number of fertilized eggs: 8
  Number of total eggs: 10 ± 2.8 /female/day
  SSC Female: 0 ± 0
  SSC Male: 86 ± 6.7
  VTG (ng/mg of liver) Female: 15,100 ± 4,290 ng/mg of liver
  VTG (ng/mg of liver) Male: 23,900 ± 3,760 ng/mg of liver
  GSI Female: 10.4%
  GSI Male: 0.33%
  HSI Female: 3.8%
  HSI Male: 3.4%
  Length Female: 35.3 mm
  Length Male: 35.1 mm
  Weight Female: 507 mg
  Weight Male: 531 mg

## C#C[C@]1(O)CC[C@H]2[C@@H]3CCC4=CC(=O)CC[C@@H]4[C@H]3CC[C@@]21CC [LNG, Levonorgestrel]
[1]
  LOEC on female SSC (papillary process formation on anal fin): 42.2 ng/L
[2]
  concentration at which female hepatic VTG was significantly decreased: 226 ng/L
male, measured conc. 7.3 ng/L
  GSI Male: 0.82%
  HSI Male: 2.0%
  Length Male: 38.4 mm
  Weight Male: 610 mg
male, measured conc. 42.2 ng/L
  GSI Male: 0.89%
  HSI Male: 2.2%
  Length Male: 38.8 mm
  Weight Male: 691 mg
male, measured conc. 226 ng/L
  GSI Male: 0.76%
  HSI Male: 2.1%
  Length Male: 38.3 mm
  Weight Male: 610 mg
Measured conc. 7.3 ng/L
  Fertility rate (%): 87%
  Mortality (%) Female: 0%
  Mortality (%) Male: 0%
  Number of fertilized eggs: 25
  Number of total eggs: 29 ± 5.8 /female/day
  SSC Female: 0 ± 0
  SSC Male: 112 ± 4.5
  VTG (ng/mg of liver) Female: 2,370 ± 207 ng/mg of liver
  VTG (ng/mg of liver) Male: 2.8 ± 4.1 ng/mg of liver
Measured conc. 42.2 ng/L
  Fertility rate (%): 82%
  Mortality (%) Female: 8%
  Mortality (%) Male: 0%
  Number of fertilized eggs: 17
  Number of total eggs: 21 ± 3.9 /female/day
  SSC Female: 44 ± 10
  SSC Male: 121 ± 8.6
  VTG (ng/mg of liver) Female: 2,350 ± 673 ng/mg of liver
  VTG (ng/mg of liver) Male: 0.8 ± 0.3 ng/mg of liver
Measured conc. 226 ng/L
  Fertility rate (%): 82%
  Mortality (%) Female: 0%
  Mortality (%) Male: 0%
  Number of fertilized eggs: 5.1
  Number of total eggs: 5.9 ± 5.2 /female/day
  SSC Female: 83 ± 5.4
  SSC Male: 116 ± 10
  VTG (ng/mg of liver) Female: 1,120 ± 561 ng/mg of liver
  VTG (ng/mg of liver) Male: 0.6 ± 0.1 ng/mg of liver
21-day exposure
  effect on fecundity (number of total eggs), in words: significant difference from the control

## Cc1cc(O)ccc1Cl [CMP, 4‐Chloro‐3‐methylphenol]
21-day exposure
  LOEC on VTG induction in male (in molarity): 7400 nM
  effect on fecundity (number of total eggs), in words: No effect
  LOEC (in molarity) for male VTG: times higher than that of E2: 110,000 times
Measured conc. 108 μg/L
  Fertility rate (%): 94%
  Mortality (%) Female: 0%
  Mortality (%) Male: 0%
  Number of fertilized eggs: 24
  Number of total eggs: 26 ± 3.2 /female/day
  SSC Female: 0 ± 0
  VTG (ng/mg of liver) Female: 2,610 ± 265 ng/mg of liver
  VTG (ng/mg of liver) Male: 2.9 ± 4.4 ng/mg of liver
  GSI Female: 9.9%
  GSI Male: 0.80%
  HSI Female: 3.9%
  HSI Male: 1.9%
  Length Female: 36.5 mm
  Length Male: 36.0 mm
  Weight Female: 565 mg
  Weight Male: 498 mg
Measured conc. 350 μg/L
  Fertility rate (%): 94%
  Mortality (%) Female: 0%
  Mortality (%) Male: 0%
  Number of fertilized eggs: 24
  Number of total eggs: 25 ± 3.9 /female/day
  SSC Female: 0 ± 0
  VTG (ng/mg of liver) Female: 2,650 ± 214 ng/mg of liver
  VTG (ng/mg of liver) Male: 9.9 ± 18.3 ng/mg of liver
  GSI Female: 9.8%
  GSI Male: 0.68%
  HSI Female: 4.4%
  HSI Male: 2.4%
  Length Female: 35.4 mm
  Length Male: 36.4 mm
  Weight Female: 509 mg
  Weight Male: 529 mg
Measured conc. 1,060 μg/L
  Fertility rate (%): 93%
  Mortality (%) Female: 8.3%
  Mortality (%) Male: 0%
  Number of fertilized eggs: 23
  Number of total eggs: 25 ± 2.3 /female/day
  SSC Female: 0 ± 0
  VTG (ng/mg of liver) Female: 3,020 ± 702 ng/mg of liver
  VTG (ng/mg of liver) Male: 33.8 ± 37.0 ng/mg of liver
  GSI Female: 9.9%
  GSI Male: 0.74%
  HSI Female: 3.9%
  HSI Male: 2.0%
  Length Female: 35.2 mm
  Length Male: 36.3 mm
  Weight Female: 509 mg
  Weight Male: 505 mg

— paper PMC8359193, “Summary of reference chemicals evaluated by the fish short‐term reproduction assay, OECD TG229, using Japanese Medaka, Oryzias latipes” (Journal of Applied Toxicology, 2021)
